From US12576050B2, “Dosage regime” (priority 2018, dated 2026)

How the values were obtained:
[1] = system: P. aeruginosa isolate from CF sputum; assay: Kirby Bauer antibiotic disc sensitivity on agar containing cysteamine; format: cell-based
Text: Legend: […], I, R=sensitive, intermediate or resistant by interpretive criteria for antibiotic disc sensitivity testing method against P. aeruginosa. No criteria for sulphonamides against P. aeruginosa, however Bactrim/co-trimoxazole sometimes used in CF therefore included here with interpretive criteria for Stenotrophomonas. *=p<0.05 two-way ANOVA Sidak's multiple comparison test.
As a result, the patient was taken off regimen of ceftolozane+tazobactam, Colomycin and Pulmozyme and put onto 14-day course of cysteamine 450 mg BID (bi-daily) with Tobramycin and Colomycin. Patient was discharged from hospital 3-days later.

[2] = system: Gram −ve organisms in sputum; assay: CARE-CF-1 trial: sputum bacterial load; format: in vivo, people with CF; conditions: for Sputum Gram −ve organisms, Day 21 change from baseline, mean: 14 day course; for Sputum Gram −ve organisms, Day 14 LSMD (cysteamine − placebo): MMRM, ITT; for Sputum Gram −ve organisms, D 14 mean: with standard of care
[3] = system: P. aeruginosa isolated from sputum from a CF patient; assay: Alginate production by sputum isolates (Alcian Blue assay); format: cell-based
Procedure: Isolate A produced 19.93 μg/ml (+/−1.9 SD) alginate and had mucoid phenotype. Isolate B produced 4.47 μg/ml (+/−2.39 SD) with dry colonies.
Results provided in FIG. 5 were derived from a study that conforms to the general quantitative assay described in J. Phycol. 13, 345-348 (1977) “Alcian Blue: A Quantitative Aqueous Assay for Algal Acid and Sulfated Polysaccharides”; J Ramus.

CF patient = assay: Single patient treated with cysteamine 450 mg bi-daily plus antibiotics; format: in vivo; conditions: cysteamine 450 mg BID with Tobramycin and Colomycin, one patient
Procedure: Patient trialled with combination treatment of 450 mg bi-daily in combination with antibiotics. […] As a result, the patient was taken off regimen of ceftolozane+tazobactam, Colomycin and Pulmozyme and put onto 14-day course of cysteamine 450 mg BID (bi-daily) with Tobramycin and Colomycin. Patient was discharged from hospital 3-days later.

[4] = system: people with CF experiencing an acute exacerbation; conditions: adjunct to treatment of exacerbations, 14 days
[5] = system: people with CF experiencing an acute exacerbation; assay: CARE-CF-1 trial: PROM CFQ-R score; format: in vivo; conditions: 450 doses, day 14; greatest for 450 BID
[6] = system: people with CF experiencing an acute exacerbation; assay: CARE-CF-1 trial: PROM CFRSD-CRISS score; format: in vivo; conditions: for CFRSD-CRISS score, Day 7 LSMD (cysteamine − placebo) / CFRSD-CRISS score, Day 14 LSMD (cysteamine − placebo): MMRM, ITT
blood leukocytes = assay: CARE-CF-1 trial: blood leukocyte count (WCC); format: in vivo, people with CF

Which results are given for `NCCS` [Cysteamine, cysteamine]?
Zone of clearance and sensitivity to sulphonamides ([1]; Müller Hinton agar containing cysteamine compared with agar alone): significant increase; Sensitivity to various antibiotics in combination with cysteamine ([1]; in vitro, patient isolate (FIG. 8)): increased sensitivity; Sputum Gram −ve organisms, Day 21 change from baseline, mean ([2]; 150 mg TID): −0.26 log10 CFU/ml; Sputum Gram −ve organisms, Day 14 LSMD (cysteamine − placebo) ([2]; 150 mg TID, p 0.9753): 0.03 log10 CFU/ml; Sputum Gram −ve organisms, Day 21 LSMD (cysteamine − placebo) ([2]; 150 mg TID, p 0.9511): 0.05 log10 CFU/ml; Sputum Gram −ve organisms, Day 14 change from baseline, mean ([2]; 150 mg tid): −1.24 log10 CFU/ml; Sputum Gram −ve organisms, D 14 mean ([2]; 150 mg tid for 14 days): 5.08 log10 CFU/ml; Sputum Gram −ve organisms, D 14 Δ −placebo mean ([2]; 150 mg tid, p 0.97): 0.03 log10 CFU/ml; Sputum Gram −ve organisms, Day 21 change from baseline, mean ([2]; 300 mg TID): −0.87 log10 CFU/ml; Sputum Gram −ve organisms, Day 14 LSMD (cysteamine − placebo) ([2]; 300 mg TID, p 0.3683): 0.82 log10 CFU/ml; Sputum Gram −ve organisms, Day 21 LSMD (cysteamine − placebo) ([2]; 300 mg TID, p 0.7802): −0.24 log10 CFU/ml; Sputum Gram −ve organisms, Day 14 change from baseline, mean ([2]; 300 mg tid): −0.98 log10 CFU/ml; Sputum Gram −ve organisms, D 14 mean ([2]; 300 mg tid for 14 days): 6.14 log10 CFU/ml; Sputum Gram −ve organisms, D 14 Δ −placebo mean ([2]; 300 mg tid, p 0.36): 0.87 log10 CFU/ml; Sputum Gram −ve organisms, Day 21 change from baseline, mean ([2]; 450 mg BID): −1.04 log10 CFU/ml; Sputum Gram −ve organisms, Day 14 LSMD (cysteamine − placebo) ([2]; 450 mg BID, p 0.4165): 0.72 log10 CFU/ml; Sputum Gram −ve organisms, Day 21 LSMD (cysteamine − placebo) ([2]; 450 mg BID, p 0.6117): −0.41 log10 CFU/ml; Sputum Gram −ve organisms, Day 21 change from baseline, mean ([2]; 450 mg QD): −1.22 log10 CFU/ml; Sputum Gram −ve organisms, Day 14 LSMD (cysteamine − placebo) ([2]; 450 mg QD, p 0.4445): 0.72 log10 CFU/ml; Sputum Gram −ve organisms, Day 21 LSMD (cysteamine − placebo) ([2]; 450 mg QD, p 0.0799): −1.56 log10 CFU/ml; Sputum Gram −ve organisms, Day 14 LSMD (cysteamine QD/BID − TID) ([2]; 450 mg TDD: 450 mg QD − 150 mg TID): 0.69 log10 CFU/ml; Sputum Gram −ve organisms, Day 21 change from baseline, mean ([2]; 450 mg TID): 0.93 log10 CFU/ml; Sputum Gram −ve organisms, Day 14 LSMD (cysteamine − placebo) ([2]; 450 mg TID, p 0.0602): 1.57 log10 CFU/ml; Sputum Gram −ve organisms, Day 21 LSMD (cysteamine − placebo) ([2]; 450 mg TID, p 0.2130): 0.99 log10 CFU/ml; Sputum Gram −ve organisms, Day 14 change from baseline, mean ([2]; 450 mg bid): −1.32 log10 CFU/ml; Sputum Gram −ve organisms, D 14 mean ([2]; 450 mg bid for 14 days): 6.25 log10 CFU/ml; Sputum Gram −ve organisms, D 14 Δ −placebo mean ([2]; 450 mg bid, p 0.61): 0.46 log10 CFU/ml; Sputum Gram −ve organisms, Day 14 change from baseline, mean ([2]; 450 mg qd): 0.12 log10 CFU/ml; Sputum Gram −ve organisms, D 14 mean ([2]; 450 mg qd for 14 days): 4.49 log10 CFU/ml; Sputum Gram −ve organisms, D 14 Δ −placebo mean ([2]; 450 mg qd, p 0.36): 0.90 log10 CFU/ml; Sputum Gram −ve organisms, Day 14 change from baseline, mean ([2]; 450 mg tid): 0.33 log10 CFU/ml; Sputum Gram −ve organisms, D 14 mean ([2]; 450 mg tid for 14 days): 6.27 log10 CFU/ml; Sputum Gram −ve organisms, D 14 Δ −placebo mean ([2]; 450 mg tid, p 0.059): 1.66 log10 CFU/ml; Sputum Gram −ve organisms, Day 14 LSMD (cysteamine QD/BID − TID) ([2]; 900 mg TDD: 450 mg BID − 300 mg TID): −0.11 log10 CFU/ml; Production of alginate/extracellular polysaccharide in mucoid strains ([3]; exposure to cysteamine): inhibited; Alginate production ([3]; isolate B, day 14 of 450 mg BID cysteamine, 120 h growth in MHB at 37° C., day 0 isolate A 19.93 μg/ml, mucoid): 4.47 µg/mL; Colony phenotype of isolate ([3]; isolate B, day 14 of 450 mg BID cysteamine, day 0 isolate mucoid): dry colonies; Time to discharge from hospital (CF patient): 3 days; Safety and tolerability [4]: safe and reasonably well tolerated; CFQR PROM score [5]: non-significant improvements; CFRSD-CRISS score, Day 7 change from baseline, mean ([6]; 150 mg TID): −11.9; CFRSD-CRISS score, Day 7 LSMD (cysteamine − placebo) ([6]; 150 mg TID, p 0.1991): 4.25; CFRSD-CRISS score, Day 14 LSMD (cysteamine − placebo) ([6]; 150 mg TID, p 0.9098): 0.57; CFRSD-CRISS score, D 14 mean ([6]; 150 mg tid): 32.4; CFRSD-CRISS score, Day 14 change from baseline, mean ([6]; 150 mg tid): −15.5; CFRSD-CRISS score, D 14 Δ −placebo mean ([6]; 150 mg tid, p 0.87): 0.8; CFRSD-CRISS score, Day 7 change from baseline, mean ([6]; 300 mg TID): −10.5; CFRSD-CRISS score, Day 7 LSMD (cysteamine − placebo) ([6]; 300 mg TID, p 0.0474): 6.48; CFRSD-CRISS score, Day 14 LSMD (cysteamine − placebo) ([6]; 300 mg TID, p 0.6439): 2.32; CFRSD-CRISS score, D 14 mean ([6]; 300 mg tid): 34.2; CFRSD-CRISS score, Day 14 change from baseline, mean ([6]; 300 mg tid): −14.8; CFRSD-CRISS score, D 14 Δ −placebo mean ([6]; 300 mg tid, p 0.70): 1.9; CFRSD-CRISS score, Day 7 change from baseline, mean ([6]; 450 mg BID): −19.1; CFRSD-CRISS score, Day 14 LSMD (cysteamine − placebo) ([6]; 450 mg BID, p 0.0496): −9.85; CFRSD-CRISS score, Day 7 LSMD (cysteamine − placebo) ([6]; 450 mg BID, p 0.8081): −0.78; CFRSD-CRISS score, Day 7 change from baseline, mean ([6]; 450 mg QD): −18.1; CFRSD-CRISS score, Day 14 LSMD (cysteamine − placebo) ([6]; 450 mg QD, p 0.1814): −7.36; CFRSD-CRISS score, Day 7 LSMD (cysteamine − placebo) ([6]; 450 mg QD, p 0.7569): −1.10; CFRSD-CRISS score, Day 14 LSMD (cysteamine QD/BID − TID) ([6]; 450 mg TDD: 450 mg QD − 150 mg TID, p 0.1725): −7.94; CFRSD-CRISS score, Day 7 change from baseline, mean ([6]; 450 mg TID): −17.8; CFRSD-CRISS score, Day 14 LSMD (cysteamine − placebo) ([6]; 450 mg TID, p 0.2097): −6.27; CFRSD-CRISS score, Day 7 LSMD (cysteamine − placebo) ([6]; 450 mg TID, p 0.7324): 1.11; Improvements in CFRSD-CRISS domains ([6]; 450 mg bi-daily compared with the other doses (FIG. 6)): best improvements; CFRSD-CRISS score, D 14 mean ([6]; 450 mg bid): 25.4; CFRSD-CRISS score, Day 14 change from baseline, mean ([6]; 450 mg bid): −28.1; CFRSD-CRISS score, D 14 Δ −placebo mean ([6]; 450 mg bid, p 0.035): −10.6; CFRSD-CRISS score, D 14 mean ([6]; 450 mg qd): 26.1; CFRSD-CRISS score, Day 14 change from baseline, mean ([6]; 450 mg qd): −24.3; CFRSD-CRISS score, D 14 Δ −placebo mean ([6]; 450 mg qd, p 0.090): −9.0; CFRSD-CRISS score, D 14 mean ([6]; 450 mg tid): 31.6; CFRSD-CRISS score, Day 14 change from baseline, mean ([6]; 450 mg tid): −23.9; CFRSD-CRISS score, D 14 Δ −placebo mean ([6]; 450 mg tid, p 0.34): −4.8; CFRSD-CRISS score, Day 14 LSMD (cysteamine QD/BID − TID) ([6]; 900 mg TDD: 450 mg BID − 300 mg TID, p 0.0222): −12.17; CRISS score at day 14 compared with standard of care plus placebo ([6]; 450 BID dose): significant improvement over and above placebo; Potentiation of other antibiotics (CRISS, post-hoc) ([6]; 450 BID versus 900 mg as 3 times 300 mg (FIG. 9)): potentiates other antibiotics more than the 300 mg three times a day dosage regime; CRISS versus placebo group across all concomitant antibiotics examined ([6]; 450 dose regimen, including 450 BID, post-hoc): non-significant improvements; CRISS versus placebo, patients not receiving azithromycin ([6]; across all cysteamine treatment regimens, post-hoc): significantly better than placebo; CRISS score at day 14 compared with placebo ([6]; other 450 doses (qd, tid)): non-significant reductions; Blood Leukocyte Count, D 14 mean (blood leukocytes; 150 mg tid): 9.71e+09 L⁻¹; Blood Leukocyte Count, D 14 Δbaseline mean (blood leukocytes; 150 mg tid): -2.64e+09 L⁻¹; Blood Leukocyte Count, D 14 Δ −placebo mean (blood leukocytes; 150 mg tid, p 1.00): 0 L⁻¹; Blood Leukocyte Count, D 14 mean (blood leukocytes; 300 mg tid): 1.055e+10 L⁻¹; Blood Leukocyte Count, D 14 Δbaseline mean (blood leukocytes; 300 mg tid): -1.9e+08 L⁻¹; Blood Leukocyte Count, D 14 Δ −placebo mean (blood leukocytes; 300 mg tid, p 0.84): -2.4e+08 L⁻¹; Blood Leukocyte Count, D 14 mean (blood leukocytes; 450 mg bid): 7.45e+09 L⁻¹; Blood Leukocyte Count, D 14 Δbaseline mean (blood leukocytes; 450 mg bid): -3.41e+09 L⁻¹; Blood Leukocyte Count, D 14 Δ −placebo mean (blood leukocytes; 450 mg bid, p 0.033): -2.43e+09 L⁻¹; Blood Leukocyte Count, D 14 mean (blood leukocytes; 450 mg qd): 8.52e+09 L⁻¹; Blood Leukocyte Count, D 14 Δbaseline mean (blood leukocytes; 450 mg qd): -2.22e+09 L⁻¹; Blood Leukocyte Count, D 14 Δ −placebo mean (blood leukocytes; 450 mg qd, p 0.22): -1.49e+09 L⁻¹; Blood Leukocyte Count, D 14 mean (blood leukocytes; 450 mg tid): 9.79e+09 L⁻¹; Blood Leukocyte Count, D 14 Δbaseline mean (blood leukocytes; 450 mg tid): -4.06e+09 L⁻¹; Blood Leukocyte Count, D 14 Δ −placebo mean (blood leukocytes; 450 mg tid, p 0.33): -1.11e+09 L⁻¹
